From PubChem BioAssay AID248 (DTP/NCI, 2004)
Values joined by “and” are separate entries in the source; they are usually repeats but may differ in a detail not shown here. Identical values can stand only once. Toxic doses and inconclusive results are not listed. Cut-off read from the data, not from the text of the source: active = T/C of 150% or more; inactive = T/C below 125%.

Test system: L1210 leukemia ip in BDF1 mice, survival T/C
Test: NCI In Vivo Anticancer Drug Screen. Data for tumor model L1210 Leukemia (intraperitoneal) in B6D2F1 (BDF1) mice
Conditions: endpoint: mean survival time, higher = longer survival
In short: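 Tumor was transplanted into mice, which were then dosed with test compound or vehicle alone. Survival was recorded for each group, and the treated figure was expressed relative to the control figure.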

[1] = dose: 100.0 mg/kg/injection, schedule: Q01DX001 (ip), vehicle: other
[2] = dose: 200.0 mg/kg/injection, schedule: Q01DX001 (ip), vehicle: other
[3] = dose: 400.0 mg/kg/injection, schedule: Q01DX001 (ip), vehicle: other
[4] = dose: 100.0 mg/kg/injection, schedule: Q04DX003 (ip), vehicle: Klucel (hydroxypropylcellulose) (HPC)
[5] = dose: 200.0 mg/kg/injection, schedule: Q04DX003 (ip), vehicle: Klucel (hydroxypropylcellulose) (HPC)
[6] = dose: 400.0 mg/kg/injection, schedule: Q04DX003 (ip), vehicle: Klucel (hydroxypropylcellulose) (HPC)
[7] = dose: 100.0 mg/kg/injection, schedule: Q04DX003 (ip), vehicle: saline
[8] = dose: 50.0 mg/kg/injection, schedule: Q01DX009 (ip), vehicle: gum acacia
[9] = dose: 100.0 mg/kg/injection, schedule: Q01DX009 (ip), vehicle: saline with Tween-80
[10] = dose: 100.0 mg/kg/injection, schedule: Q04DX003 (ip), vehicle: gum acacia
[11] = dose: 100.0 mg/kg/injection, schedule: Q04DX003 (ip), vehicle: saline with Tween-80
[12] = dose: 200.0 mg/kg/injection, schedule: Q01DX009 (ip), vehicle: saline with Tween-80
[13] = dose: 200.0 mg/kg/injection, schedule: Q04DX003 (ip), vehicle: gum acacia
[14] = dose: 200.0 mg/kg/injection, schedule: Q04DX003 (ip), vehicle: saline with Tween-80
[15] = dose: 400.0 mg/kg/injection, schedule: Q01DX009 (ip), vehicle: saline with Tween-80
[16] = dose: 400.0 mg/kg/injection, schedule: Q04DX003 (ip), vehicle: saline with Tween-80
[17] = dose: 25.0 mg/kg/injection, schedule: Q01DX009 (ip), vehicle: saline

Measured: T/C

O=C(O)CN(CCCCN(CC(=O)O)CC(=O)O)CC(=O)O
inactive: [1] 111 % of control | [2] 117 % of control | [3] 96 % of control

COC(=O)C1(O)CC(=O)CCC1c1ccccc1 (stereo unspecified)
inactive: [4] 105 % of control | [5] 94 % of control | [6] 95 % of control

N=C(N)SC/C=C/CSC(=N)N
inactive: dose: 25.0 mg/kg/injection, schedule: Q04DX003 (ip), vehicle: saline 106 % of control | dose: 50.0 mg/kg/injection, schedule: Q04DX003 (ip), vehicle: saline 96 % of control | [7] 103 % of control and 88 % of control

CC(C)(C)C1CCC(C(=O)O)CC1 (stereo unspecified)
inactive: [8] 102 % of control | dose: 100.0 mg/kg/injection, schedule: Q01DX009 (ip), vehicle: gum acacia 103 % of control | [9] 95 % of control and 97 % of control | dose: 100.0 mg/kg/injection, schedule: Q04DX002 (ip), vehicle: gum acacia 100 % of control | [10] 106 % of control | [11] 102 % of control and 89 % of control | dose: 200.0 mg/kg/injection, schedule: Q01DX009 (ip), vehicle: gum acacia 105 % of control | [12] 94 % of control and 97 % of control | dose: 200.0 mg/kg/injection, schedule: Q04DX002 (ip), vehicle: gum acacia 110 % of control | [13] 106 % of control | [14] 100 % of control and 94 % of control | [15] 97 % of control | dose: 400.0 mg/kg/injection, schedule: Q04DX002 (ip), vehicle: gum acacia 110 % of control | [16] 89 % of control

Cc1ccc(Nc2ccc(Nc3ccc(CCO)cc3)c3c2C(=O)c2ccccc2C3=O)cc1
inactive: dose: 100.0 mg/kg/injection, schedule: Q01DX009 (ip), vehicle: Klucel (hydroxypropylcellulose) (HPC) 96 % of control | dose: 200.0 mg/kg/injection, schedule: Q01DX009 (ip), vehicle: Klucel (hydroxypropylcellulose) (HPC) 100 % of control | dose: 400.0 mg/kg/injection, schedule: Q01DX009 (ip), vehicle: Klucel (hydroxypropylcellulose) (HPC) 89 % of control

O=[N+]([O-])c1ccc(S(=O)(=O)Nc2ccc(-c3ccccc3)cc2)cc1
inactive: dose: 100.0 mg/kg/injection, schedule: Q01DX009 (ip), vehicle: other 110 % of control | dose: 100.0 mg/kg/injection, schedule: Q04DX003 (ip), vehicle: other 93 % of control | dose: 200.0 mg/kg/injection, schedule: Q01DX009 (ip), vehicle: other 98 % of control | dose: 200.0 mg/kg/injection, schedule: Q04DX003 (ip), vehicle: other 96 % of control | dose: 400.0 mg/kg/injection, schedule: Q01DX009 (ip), vehicle: other 94 % of control | dose: 400.0 mg/kg/injection, schedule: Q04DX003 (ip), vehicle: other 89 % of control

COP(=O)(NNc1cc(Cl)ccc1Cl)OC
inactive: [11] 104 % of control | [14] 106 % of control | [16] 101 % of control

O=C(O)c1ccc(/C=N\Nc2ccccc2)cc1
inactive: dose: 50.0 mg/kg/injection, schedule: Q04DX003 (ip), vehicle: Klucel (hydroxypropylcellulose) (HPC) 95 % of control | [4] 106 % of control | [5] 100 % of control | [6] 97 % of control

COc1c(CO)cc(C)cc1CO
inactive: dose: 87.5 mg/kg/injection, schedule: Q04DX003 (ip), vehicle: saline with Tween-80 101 % of control | dose: 175.0 mg/kg/injection, schedule: Q04DX003 (ip), vehicle: saline with Tween-80 124 % of control | dose: 350.0 mg/kg/injection, schedule: Q04DX003 (ip), vehicle: saline with Tween-80 101 % of control

Cc1ccc(C2(C)CC/C(=N/N=C3/CCC(C)(c4ccc(C)c(C)c4)c4cc(C)c(C)cc43)c3cc(C)c(C)cc32)cc1C (stereo unspecified)
inactive: dose: 100.0 mg/kg/injection, schedule: Q01DX001 (ip), vehicle: saline 93 % of control | dose: 200.0 mg/kg/injection, schedule: Q01DX001 (ip), vehicle: saline 101 % of control | dose: 400.0 mg/kg/injection, schedule: Q01DX001 (ip), vehicle: saline 98 % of control

Cc1c2cnccc2c(C)c2c1c1ccccc1n2C(C)C
inactive: dose: 37.5 mg/kg/injection, schedule: Q04DX003 (ip), vehicle: saline 100 % of control | dose: 62.5 mg/kg/injection, schedule: Q01DX009 (ip), vehicle: saline with Tween-80 110 % of control | dose: 75.0 mg/kg/injection, schedule: Q04DX003 (ip), vehicle: saline 101 % of control | dose: 150.0 mg/kg/injection, schedule: Q04DX003 (ip), vehicle: saline 104 % of control | dose: 300.0 mg/kg/injection, schedule: Q04DX003 (ip), vehicle: saline 124 % of control

CCOC(=O)C(NC=O)C(=O)OCC
inactive: [17] 101 % of control | dose: 50.0 mg/kg/injection, schedule: Q01DX009 (ip), vehicle: saline 101 % of control | dose: 100.0 mg/kg/injection, schedule: Q01DX009 (ip), vehicle: saline 101 % of control | dose: 200.0 mg/kg/injection, schedule: Q01DX009 (ip), vehicle: saline 103 % of control | dose: 400.0 mg/kg/injection, schedule: Q01DX009 (ip), vehicle: saline 98 % of control

COC(=O)/C=C\C=C(\CBr)C(=O)OC
inactive: dose: 6.25 mg/kg/injection, schedule: Q01DX009 (ip), vehicle: saline 104 % of control | dose: 6.25 mg/kg/injection, schedule: Q04DX003 (ip), vehicle: saline sonified 103 % of control | dose: 12.5 mg/kg/injection, schedule: Q01DX009 (ip), vehicle: saline 96 % of control | dose: 12.5 mg/kg/injection, schedule: Q04DX003 (ip), vehicle: saline sonified 97 % of control | [17] 110 % of control | dose: 25.0 mg/kg/injection, schedule: Q04DX003 (ip), vehicle: saline sonified 95 % of control

Cc1ccc(NC(=O)OCCSC(=O)COc2ccc(Cl)cc2Cl)cc1
inactive: [9] 93 % of control | [12] 98 % of control | [15] 104 % of control

O=C1CCSC(=O)N1SC(Cl)(Cl)Cl
inactive: dose: 6.0 mg/kg/injection, schedule: Q04DX003 (ip), vehicle: saline with Tween-80 88 % of control | dose: 12.0 mg/kg/injection, schedule: Q01DX009 (ip), vehicle: saline with Tween-80 94 % of control | dose: 12.0 mg/kg/injection, schedule: Q04DX003 (ip), vehicle: saline with Tween-80 101 % of control | dose: 25.0 mg/kg/injection, schedule: Q01DX009 (ip), vehicle: saline with Tween-80 92 % of control | dose: 25.0 mg/kg/injection, schedule: Q04DX003 (ip), vehicle: saline with Tween-80 97 % of control and 101 % of control | dose: 50.0 mg/kg/injection, schedule: Q01DX009 (ip), vehicle: saline with Tween-80 93 % of control and 90 % of control | [7] 98 % of control | dose: 200.0 mg/kg/injection, schedule: Q04DX003 (ip), vehicle: saline 93 % of control

Cc1nccc2c(C)c3c(cc12)c1ccccc1n3CCC1CO1 (stereo unspecified)
inactive: dose: 37.5 mg/kg/injection, schedule: Q04DX003 (ip), vehicle: water 118 % of control | dose: 75.0 mg/kg/injection, schedule: Q04DX003 (ip), vehicle: water 122 % of control | dose: 150.0 mg/kg/injection, schedule: Q04DX003 (ip), vehicle: water 118 % of control

Cc1ccc(C)c(NC(=O)NCc2ccco2)c1
inactive: [9] 97 % of control | [12] 89 % of control

CCCCCNC(=O)CC(O)C(=O)NCCCCC (stereo unspecified)
inactive: [1] 87 % of control | [2] 98 % of control | [3] 96 % of control

COc1ccc(CCl)cc1C(=O)O
inactive: dose: 75.0 mg/kg/injection, schedule: Q01DX001 (ip), vehicle: saline 86 % of control | dose: 150.0 mg/kg/injection, schedule: Q01DX001 (ip), vehicle: saline 91 % of control

O=C(Cc1ccccc1)NC1=C(Cl)C(=O)c2ccccc2C1=O
inactive: [11] 89 % of control | [14] 101 % of control | [16] 88 % of control

CCNC(C)(C)C(SSS)c1ccco1 (stereo unspecified)
inactive: dose: 12.5 mg/kg/injection, schedule: Q01DX009 (ip), vehicle: gum acacia 90 % of control | dose: 25.0 mg/kg/injection, schedule: Q01DX009 (ip), vehicle: gum acacia 88 % of control | [8] 90 % of control | [10] 95 % of control | [13] 95 % of control | dose: 400.0 mg/kg/injection, schedule: Q04DX003 (ip), vehicle: gum acacia 107 % of control
